Measured values reported in PubChem BioAssay AID328 (DTP/NCI, 2004).
Where “and” joins values, the source holds several entries; their conditions need not be identical. Equal entries are not always repeated. Toxic doses and inconclusive results are not listed.

System: BDF1 mice, P388 leukemia ip, median survival T/C
Assay: NCI In Vivo Anticancer Drug Screen. Data for tumor model P388 Leukemia (intraperitoneal) in B6D2F1 (BDF1) mice
Conditions: endpoint: median survival time, higher = longer survival
Procedure, shortened: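 Vehicle-dosed animals serve as the reference; survival of compound-dosed, tumour-implanted mice is divided by it.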

[1] = dose: 100.0 mg/kg/injection, schedule: Q04DX003 (ip), vehicle: saline with Tween-80
[2] = dose: 200.0 mg/kg/injection, schedule: Q04DX003 (ip), vehicle: saline with Tween-80
[3] = dose: 400.0 mg/kg/injection, schedule: Q04DX003 (ip), vehicle: saline with Tween-80
[4] = dose: 100.0 mg/kg/injection, schedule: Q04DX003 (ip), vehicle: Klucel (hydroxypropylcellulose) (HPC)
[5] = dose: 100.0 mg/kg/injection, schedule: Q01DX009 (ip), vehicle: saline with Tween-80
[6] = dose: 200.0 mg/kg/injection, schedule: Q01DX009 (ip), vehicle: saline with Tween-80
[7] = dose: 400.0 mg/kg/injection, schedule: Q01DX009 (ip), vehicle: saline with Tween-80
[8] = dose: 50.0 mg/kg/injection, schedule: Q04DX003 (ip), vehicle: saline with Tween-80
[9] = dose: 50.0 mg/kg/injection, schedule: Q04DX003 (ip), vehicle: Klucel (hydroxypropylcellulose) (HPC)
[10] = dose: 50.0 mg/kg/injection, schedule: Q01DX009 (ip), vehicle: Klucel (hydroxypropylcellulose) (HPC)

O=[N+]([O-])c1ccc(/C=C2\c3ccccc3-c3nc4ccccc4nc32)cc1
T/C (dose: 150.0 mg/kg/injection, schedule: Q01DX001 (ip), vehicle: other): 118 % of control | T/C (dose: 300.0 mg/kg/injection, schedule: Q01DX001 (ip), vehicle: other): 86 % of control

CCOC(=O)c1cc(N)c(N2CCCC2)cc1Cl
T/C [1]: 100 % of control | T/C (dose: 133.0 mg/kg/injection, schedule: Q04DX003 (ip), vehicle: saline with Tween-80): 89 % of control | T/C [2]: 105 % of control | T/C (dose: 300.0 mg/kg/injection, schedule: Q04DX003 (ip), vehicle: saline with Tween-80): 94 % of control | T/C [3]: 100 % of control

C[n+]1ccc(Nc2ccc(NC(=O)c3ccc(Nc4cc[n+](C)c5ccc(N)cc45)cc3)cc2)cc1
T/C (dose: 1.0 mg/kg/injection, schedule: Q01DX009 (ip), vehicle: Klucel (hydroxypropylcellulose) (HPC)): 211 % of control | T/C (dose: 2.0 mg/kg/injection, schedule: Q01DX009 (ip), vehicle: Klucel (hydroxypropylcellulose) (HPC)): 170 % of control and 195 % of control | T/C (dose: 3.24 mg/kg/injection, schedule: Q04DX003 (ip), vehicle: water): 173 % of control | T/C (dose: 4.0 mg/kg/injection, schedule: Q01DX009 (ip), vehicle: Klucel (hydroxypropylcellulose) (HPC)): 243 % of control and 250 % of control | T/C (dose: 4.32 mg/kg/injection, schedule: Q01DX009 (ip), vehicle: water): 254 % of control | T/C (dose: 5.4 mg/kg/injection, schedule: Q04DX003 (ip), vehicle: water): 180 % of control | T/C (dose: 7.2 mg/kg/injection, schedule: Q01DX009 (ip), vehicle: water): 261 % of control | T/C (dose: 8.0 mg/kg/injection, schedule: Q01DX009 (ip), vehicle: Klucel (hydroxypropylcellulose) (HPC)): 244 % of control and 250 % of control | T/C (dose: 9.0 mg/kg/injection, schedule: Q04DX003 (ip), vehicle: water): 220 % of control | T/C (dose: 15.0 mg/kg/injection, schedule: Q04DX003 (ip), vehicle: water): 103 % of control

OC(c1ccc(Cl)cc1)(c1ccc(Cl)cc1)C(F)(F)F
T/C (dose: 100.0 mg/kg/injection, schedule: Q01DX009 (sc), vehicle: olive oil, sesame oil, peanut oil): 96 % of control | T/C (dose: 100.0 mg/kg/injection, schedule: Q04DX003 (sc), vehicle: olive oil, sesame oil, peanut oil): 109 % of control | T/C (dose: 200.0 mg/kg/injection, schedule: Q04DX003 (sc), vehicle: olive oil, sesame oil, peanut oil): 100 % of control | T/C (dose: 400.0 mg/kg/injection, schedule: Q04DX003 (sc), vehicle: olive oil, sesame oil, peanut oil): 95 % of control

O=C(O)c1ccccc1Nc1ccc(Br)cc1
T/C (dose: 50.0 mg/kg/injection, schedule: Q01DX001 (ip), vehicle: saline with Tween-80): 100 % of control | T/C (dose: 100.0 mg/kg/injection, schedule: Q01DX001 (ip), vehicle: saline with Tween-80): 91 % of control

C=CC(C)(O)/C=C/C=C(\C)C(CC1OC1(C)C)OC(=O)/C(C)=C\C (configuration not stated)
T/C (dose: 0.78 mg/kg/injection, schedule: Q01DX009 (ip), vehicle: saline): 106 % of control | T/C (dose: 1.56 mg/kg/injection, schedule: Q01DX009 (ip), vehicle: saline): 95 % of control | T/C (dose: 3.13 mg/kg/injection, schedule: Q01DX009 (ip), vehicle: saline): 95 % of control | T/C (dose: 6.25 mg/kg/injection, schedule: Q01DX009 (ip), vehicle: saline): 113 % of control

Nc1c(C(=O)O)ccc2c1C(=O)c1ccccc1C2=O
T/C (dose: 44.0 mg/kg/injection, schedule: Q04DX003 (ip), vehicle: gum acacia): 87 % of control | T/C (dose: 50.0 mg/kg/injection, schedule: Q01DX009 (ip), vehicle: gum acacia): 92 % of control | T/C (dose: 67.0 mg/kg/injection, schedule: Q04DX003 (ip), vehicle: Klucel (hydroxypropylcellulose) (HPC)): 115 % of control | T/C (dose: 67.0 mg/kg/injection, schedule: Q04DX003 (ip), vehicle: gum acacia): 100 % of control | T/C (dose: 100.0 mg/kg/injection, schedule: Q01DX009 (ip), vehicle: gum acacia): 103 % of control | T/C [4]: 120 % of control | T/C (dose: 100.0 mg/kg/injection, schedule: Q04DX003 (ip), vehicle: gum acacia): 87 % of control | T/C (dose: 150.0 mg/kg/injection, schedule: Q04DX003 (ip), vehicle: Klucel (hydroxypropylcellulose) (HPC)): 110 % of control | T/C (dose: 150.0 mg/kg/injection, schedule: Q04DX003 (ip), vehicle: gum acacia): 116 % of control

O=C(Nc1ccc(C2=NCCN2)cc1)Nc1cccc(NC(=O)Nc2ccc(C3=NCCN3)cc2)c1
T/C (dose: 60.0 mg/kg/injection, schedule: Q01DX010 (ip), vehicle: saline): 185 % of control and 190 % of control | T/C (dose: 120.0 mg/kg/injection, schedule: Q01DX010 (ip), vehicle: saline): 185 % of control | T/C (dose: 240.0 mg/kg/injection, schedule: Q01DX010 (ip), vehicle: saline): 245 % of control and 220 % of control | T/C (dose: 480.0 mg/kg/injection, schedule: Q01DX010 (ip), vehicle: saline): 120 % of control

Nc1cc(N)c([N+](=O)[O-])cc1[N+](=O)[O-]
T/C [5]: 90 % of control | T/C [6]: 100 % of control | T/C [7]: 104 % of control

Cc1cc(N(C)C)cc(C)c1/C=C\c1ccnc2ccccc12
T/C (dose: 100.0 mg/kg/injection, schedule: Q04DX002 (ip), vehicle: saline with Tween-80): 112 % of control | T/C (dose: 200.0 mg/kg/injection, schedule: Q04DX002 (ip), vehicle: saline with Tween-80): 107 % of control | T/C (dose: 400.0 mg/kg/injection, schedule: Q04DX002 (ip), vehicle: saline with Tween-80): 117 % of control

COCC(O)CCl (configuration not stated)
T/C [8]: 100 % of control | T/C [1]: 100 % of control and 110 % of control | T/C [2]: 100 % of control and 110 % of control

Nc1ccc(N=Nc2ccccc2)c(N)n1
T/C [9]: 100 % of control | T/C [4]: 100 % of control

O=C(CCl)Nc1cc(Cl)ccc1N1CCCC1
T/C (dose: 12.5 mg/kg/injection, schedule: Q01DX001 (ip), vehicle: Klucel (hydroxypropylcellulose) (HPC)): 118 % of control | T/C (dose: 12.5 mg/kg/injection, schedule: Q04DX003 (ip), vehicle: Klucel (hydroxypropylcellulose) (HPC)): 90 % of control | T/C (dose: 25.0 mg/kg/injection, schedule: Q01DX001 (ip), vehicle: Klucel (hydroxypropylcellulose) (HPC)): 104 % of control | T/C (dose: 25.0 mg/kg/injection, schedule: Q01DX009 (ip), vehicle: Klucel (hydroxypropylcellulose) (HPC)): 95 % of control | T/C (dose: 25.0 mg/kg/injection, schedule: Q04DX003 (ip), vehicle: Klucel (hydroxypropylcellulose) (HPC)): 104 % of control | T/C (dose: 50.0 mg/kg/injection, schedule: Q01DX001 (ip), vehicle: Klucel (hydroxypropylcellulose) (HPC)): 104 % of control | T/C [10]: 90 % of control | T/C [9]: 104 % of control | T/C (dose: 75.0 mg/kg/injection, schedule: Q01DX001 (ip), vehicle: Klucel (hydroxypropylcellulose) (HPC)): 95 % of control | T/C (dose: 115.0 mg/kg/injection, schedule: Q01DX001 (ip), vehicle: Klucel (hydroxypropylcellulose) (HPC)): 95 % of control

C[C@H]1[C@H](O)[C@H]2[C@@H](CCC3=CC(=O)CC[C@@]32C)[C@@H]2CC[C@H](O)[C@@]12C
T/C [5]: 100 % of control | T/C [1]: 91 % of control | T/C [6]: 87 % of control and 100 % of control | T/C [2]: 95 % of control | T/C [7]: 87 % of control and 118 % of control | T/C [3]: 91 % of control

CC(CO)S(=O)(=O)C(C)(C)C (configuration not stated)
T/C (dose: 100.0 mg/kg/injection, schedule: Q04DX003 (ip), vehicle: saline): 94 % of control | T/C (dose: 200.0 mg/kg/injection, schedule: Q04DX003 (ip), vehicle: saline): 95 % of control | T/C (dose: 400.0 mg/kg/injection, schedule: Q04DX003 (ip), vehicle: saline): 94 % of control

O=C(NC(=O)C(F)(F)C(F)(F)F)Nc1cccc(F)c1
T/C [10]: 116 % of control | T/C (dose: 100.0 mg/kg/injection, schedule: Q01DX009 (ip), vehicle: Klucel (hydroxypropylcellulose) (HPC)): 122 % of control

CCOC(=O)C(Cc1ccc(N(CCCl)CCCl)cc1)NC(=O)CNC(C)=O (configuration not stated)
T/C (dose: 12.5 mg/kg/injection, schedule: Q04DX003 (ip), vehicle: saline with Tween-80): 177 % of control | T/C (dose: 25.0 mg/kg/injection, schedule: Q04DX003 (ip), vehicle: saline with Tween-80): 200 % of control | T/C (dose: 33.0 mg/kg/injection, schedule: Q04DX003 (ip), vehicle: saline with Tween-80): 280 % of control and 218 % of control | T/C [8]: 259 % of control and 272 % of control and 170 % of control | T/C (dose: 75.0 mg/kg/injection, schedule: Q04DX003 (ip), vehicle: saline with Tween-80): 204 % of control
